The record followed here is patent publication US20240327392A1, “HETEROCYCLOALKYL-SUBSTITUTED POLYHETEROAZOLE DERIVATIVES AS MEDICAMENTS FOR TREATING AND/OR PREVENTING RS VIRUS INFECTIONS” (ALBIUS SCIENCES ALPHA PRIVATE LIMITED, priority 2021, published 2024).

The first assay has as its system human RS virus A2 strain. In words: In vitro test for anti-RS virus proliferation inhibitory activity (quantitative RT-PCR of RS virus RNA copy number in infected Vero cells). The class given is cell-based. To be noted: 72 h; Vero cells infected with human RS virus A2 strain, 3 days of incubation, RS virus N gene RNA copy number by quantitative RT-PCR; read-out: Anti-RS virus Activity. As to the method: A mixture of Vero cells (3.4×10^5 cells/mL) and human RS virus A2 strain (1.7×10^4 TCID50/mL) (EMEM medium supplemented with 10% FCS) was added to a 96-well plate at 50 μL/well, and the 10% FCS-supplemented EMEM medium adjusted to the desired final concentration of the compounds to be tested was added at 50 μL/well, followed by incubating the plate at 37° C. in the presence of 5% CO2 at 37° C. After 3 days of incubation, the supernatant was removed, the cells were washed with PBS(−), and the cell lysis buffer supplied with the SingleShot (registered trademark) Cell Lysis Kit (Bio-Rad) was added dropwise at 50 μL/well to lysis the cells thereby providing the cell lysate.
Human RS virus RNA copy number in the cell lysate was determined by quantitative RT-PCR using iTaq Universal SYBR Green One-Step Kit (Bio-Rad). Specifically, primers targeting human RS virus N gene (Rameix-Welti et al, Nat Commun5: 5104, 2014. doi: 10.1038/ncomms6104) was used to prepare the reaction solution according to the instructions provided with the kit, and a 96-well PikoReal Real-Time PCR System (TCR0096, Thermo Fisher Scientific) was used to detect PCR reaction and signal assay.
The copy number was calculated by the relative method using the comparative Ct method using compound-free virus-infected cells as controls.
Consider `CS(=O)(=O)N1CCCC[C@H]1c1nc(CCCc2ccccc2)no1` [Compound 2C, 3-(3-phenylpropyl)-5-[(2S)-1-methanesulfonylpiperidin-2-yl]-1,2,4-oxadiazole], for which the IC50 was in the range of 10 to 50 µM. `O=C(N1CCC[C@H]1c1nc(CCCc2ccccc2)no1)C(F)(F)F` [1C′, 3-(3-phenylpropyl)-5-[(2S)-1-trifluoroacetylpyrrolidin-2-yl]-1,2,4-oxadiazole]: the IC50 was less than 10 µM.

Still in this assay, the particulars now being: 72 h; Vero cells infected with human RS virus A2 strain, 3 days of incubation, RS virus RNA copy number by quantitative RT-PCR; read-out: Anti-RS virus Activity.
With `CCOC(=O)C1CCN(S(=O)(=O)N2CC3(CC3)C[C@H]2c2nc(CCCc3ccccc3)no2)CC1` [Compound 5AC, ethyl (S)-1-((6-(3-(3-phenylpropyl)-1,2,4-oxadiazole-5-yl)-5-azaspiro[2.4]heptan-5-yl)sulfonyl)piperidin-4-carboxylate], the IC50 is 10 to 50 µM. Take `COc1ccc(S(=O)(=O)N2C[C@H](F)C[C@H]2c2nc(CCCc3ccccc3)no2)cc1` [Compound 8AI, 5-((2S,4R)-4-fluoro-1-((4-methoxyphenyl)sulfonyl)pyrrolidin-2-yl)-3-(3-phenylpropyl)-1,2,4-oxadiazole]: the IC50 is less than 10 µM. Still for that read-out and setting: for `CC(C)(C)NC(=O)N1CCC[C@H]1c1nc(CCCc2ccccc2)no1` [Compound 1H, (S)—N-(tert-butyl)-2-(3-(3-phenylpropyl)-1,2,4-oxadiazol-5-yl) pyrrolidine-1-carboxamide] the value was more than 50 µM; for `O=S(=O)(c1ccccc1)N1C[C@H](F)C[C@H]1c1nc(CCCc2ccccc2)no1` [Compound 8D, 3-(3-phenylpropyl)-5-[(2S,4R)-1-benzenesulfonyl-4-fluoropyrrolidin-2-yl]-1,2,4-oxadiazole], 10 to 50 µM. The same measure, in the same setting: next, `CC(C)(C)OC(=O)N1CCCC[C@H]1c1nc(CC(=O)Nc2ccccc2)no1` [Compound 23-1, Tert-butyl (S)-2-(3-(2-oxo-2-(phenylamino)ethyl)-1,2,4-oxadiazol-5-yl)piperidine-1-carboxylate]: 10 to 50 µM; `O=S(=O)(c1ccccc1)N1CC2(CC2)C[C@H]1c1nc(CCCc2ccccc2)no1` [Compound 5D, 3-(3-phenylpropyl)-5-{(6S)-5-benzenesulfonyl-5-azaspiro[2.4]hept-6-yl}-1,2,4-oxadiazole]: more than 50 µM; `O=S(=O)(N1CCCCC1)N1C[C@H](F)C[C@H]1c1nc(CCCc2ccccc2)no1` [Compound 8AD, 5-((2S,4R)-4-fluoro-1-(piperidin-1-ylsulfonyl)pyrrolidin-2-yl)-3-(3-phenylpropyl)-1,2,4-oxadiazole]: 10 to 50 µM. Consider `COc1ccc(CCCc2noc([C@@H]3CCCCN3C(=O)OC(C)(C)C)n2)cc1OC` [Compound 22-1, Tert-butyl (S)-2-(3-(3-(3,4-dimethoxyphenyl)propyl)-1,2,4-oxadiazol-5-yl)piperidine-1-carboxylate], for which the IC50 is less than 10 µM.

Consider `COc1ccc(C(=O)NCc2noc([C@@H]3CCCCN3S(=O)(=O)C3CCCCC3)n2)cc1OC` [Compound 27B, (S)—N-((5-(1-(cyclohexylsulfonyl)piperidin-2-yl)-1,2,4-oxadiazol-3-yl)methyl)-3,4-dimethoxybenzamide], for which the IC50 lay in the range of 10 to 50 µM.

For `CC(C)CS(=O)(=O)N1[C@@H]2CC[C@@H](C2)[C@H]1c1nnc(CCc2ccncc2)[nH]1` [Compound 25A, (1R,3S,4S)-2-(isobutylsulfonyl)-3-(5-(2-(pyridin-4-yl)ethyl)-4H-1,2,4-triazol-3-yl)-2-azabicyclo[2.2.1]heptane], the IC50 is 10 to 50 µM.

In the case of `CC(C)(C)OC(=O)N1C[C@H]2CC[C@]1(c1nc(CCc3ccccc3)no1)CC2` [Compound 15-1, Tert-butyl (1s,4s)-1-(3-phenethyl-1,2,4-oxadiazol-5-yl)-2-azabicyclo[2.2.2]octane-2-carboxylate], the IC50 fell in the range of 10 to 50 µM.

Turning to `CC(C)(C)OC(=O)N1[C@@H]2CC[C@@H](C2)[C@H]1c1nnc(Cc2cc3ccccc3[nH]2)[nH]1` [Compound 28-1, Tert-butyl (1R,3S,4S)-3-(5-((1H-indol-2-yl)methyl)-4H-1,2,4-triazol-3-yl)-2-azabicyclo[2.2.1]heptane-2-carboxylate], the IC50 fell in the range of 10 to 50 µM. On the same count and under the same terms, for `CCOC(=O)C1CCN(S(=O)(=O)N2CC(CC3CCC3)CC2c2nc(CCCc3ccccc3)no2)CC1` (stereo not drawn) [Compound 6AC, ethyl 1-((4-(cyclobuthylmethyl)-2-(3-(3-phenylpropyl)-1,2,4-oxadiazole-5-yl)pyrrolidin-1-yl)sulfonyl)piperidin-4-carboxylate] the value was 10 to 50 µM; for `CC(C)(C)OC(=O)N1C[C@@H](C#N)C[C@H]1c1nc(CCCc2ccccc2)no1` [Compound 41-1, Tert-butyl (2S,4S)-4-cyano-2-(3-(3-phenylpropyl)-1,2,4-oxadiazol-5-yl)pyrrolidine-1-carboxylate], 10 to 50 µM; for `O=C(Cc1ccccc1)N1CCC[C@H]1c1nc(CCCc2ccccc2)no1` [Compound 1P, (S)-2-Phenyl-1-(2-(3-(3-phenylpropyl)-1,2,4-oxadiazol-5-yl)pyrrolidin-1-yl) ethan-1-one], less than 10 µM.

For `O=S(=O)(N1CCCCC1)N1CC2(CC2)C[C@H]1c1nc(CCCc2ccccc2)no1` [Compound 5AD, (S)-3-(3-phenylpropyl)-5-(5-(piperidin-1-ylsulfonyl)-5-azaspiro[2.4]heptan-6-yl)-1,2,4-oxadiazole], the IC50 lay within 10 to 50 µM. On to `COc1ccc(S(=O)(=O)N2CC3(CC3)C[C@H]2c2nc(CCCc3ccccc3)no2)cc1` [Compound 5AI, (S)-5-(5-((4-methoxyphenyl)sulfonyl)-5-azabicyclo[2.4]heptan-6-yl)-3-(3-phenylpropyl)-1,2,4-oxadiazole], for which the IC50 lay in the range of 10 to 50 µM.

For `O=S(=O)(N1CCCCC1)N1C[C@H](c2ccccc2)C[C@H]1c1nc(CCCc2ccccc2)no1` [Compound 7AD], the IC50 lay in the range of 10 to 50 µM. Still for that read-out and setting: next, `O=C(NCc1cnc2ccccc2c1)N1[C@@H]2CC[C@@H](C2)[C@H]1c1nnc(Cc2c[nH]c3ccccc23)[nH]1` [Compound 24AH]: 10 to 50 µM; `Cc1oc([C@@H]2CCCCN2S(=O)(=O)C2CCCCC2)nc1C(=O)NCc1ccccc1` [Compound 34B, (S)—N-Benzyl-2-(1-(cyclohexylsulfonyl)piperidin-2-yl)-5-methyloxazole-4-carboxamide]: 10 to 50 µM. Consider `O=S(=O)(Cc1ccccc1)N1CC(c2ccccc2)C[C@H]1c1nc(CCCc2ccccc2)no1` (stereo in doubt) [Compound 7E, 3-(3-Phenylpropyl)-5-[(2S,4S)-1-benzylsulfonyl-4-phenylpyrrolidin-2-yl]-1,2,4-oxadiazole], for which the IC50 is more than 50 µM. For the compound `CC(=O)N1CCC[C@H]1c1nc(CCCc2ccccc2)no1` [Compound 1R], the IC50 was in the range of 10 to 50 µM. Turning to `O=S(=O)(N1CCOCC1)N1CCCC[C@H]1c1nc(CCCc2ccccc2)no1` [Compound 2AE, (S)-4-((2-(3-(3-phenylpropyl)-1,2,4-oxadiazol-5-yl)piperidin-1-yl)sulfonyl)morpholine], the IC50 was less than 10 µM. Still for that read-out and setting: next, `CC(C)CCN1CCC[C@H]1c1nc(CCCc2ccccc2)no1` [Compound 1T, (S)-5-(1-isopentylpyrrolidin-2-yl)-3-(3-phenylpropyl)-1,2,4-oxadiazole]: less than 10 µM; `CC(C)(C)OC(=O)N1CCCC[C@H]1c1nc(CCc2ccccc2)no1` [Compound 10-1, 3-(3-phenylethyl)-5-[(2S)-1-tert-butoxycarbonylpiperidin-2-yl]-1,2,4-oxadiazole]: 10 to 50 µM. The same measure, in the same setting: next, `Cc1oc([C@@H]2CCCCN2S(=O)(=O)C2CCCCC2)nc1C(=O)O` [Compound 33B, (S)-2-(1-(Cyclohexylsulfonyl)piperidin-2-yl)-5-methyl oxazole-4-carboxylic acid]: 10 to 50 µM; `O=C(NCc1ccccc1)N1[C@@H]2CC[C@@H](C2)[C@H]1c1nnc(Cc2c[nH]c3ccccc23)[nH]1` [Compound 24F, (1R,3S,4S)-3-(5-((1H-indol-3-yl)methyl)-4H-1,2,4-triazol-3-yl)-N-benzyl-2-azabicyclo[2.2.1]heptane-2-carboxamide]: 10 to 50 µM; `CCN1CCCC[C@H]1c1nc(CCCc2ccccc2)no1` [Compound 2Z, (S)-5-(1-ethylpiperidin-2-yl)-3-(3-phenylpropyl)-1,2,4-oxadiazole]: 10 to 50 µM. Still for that read-out and setting: next, `COC(=O)c1nc([C@@H]2CCCCN2S(=O)(=O)C2CCCCC2)sc1C` [Compound 35B, Methyl (S)-2-(1-(cyclohexylsulfonyl)piperidin-2-yl)-5-methylthiazole-4-carboxylate]: 10 to 50 µM; `CC(C)(C)OC(=O)N1CCCC[C@H]1c1noc(CCc2ccccc2)n1` [Compound C2-16-1, Tert-butyl (S)-2-(5-phenethyl-1,2,4-oxadiazol-3-yl) piperidine-1-carboxylate]: 10 to 50 µM; `CN(C)c1cccc2c(S(=O)(=O)N3C[C@H](F)C[C@H]3c3nc(CCCc4ccccc4)no3)cccc12` [Compound 8AL, 5-(((2S,4R)-4-fluoro-2-(3-(3-phenylpropyl)-1,2,4-oxadiazole-5-yl)pyrrolidin-1-yl)sulfonyl)-N,N-dimethylnaphthalen-1-amine]: less than 10 µM.
